According to patent publication US20100093611A1, “COMPOUNDS AND METHODS FOR TREATING OR PREVENTING AUTOIMMUNE DISEASES” (priority 2007, published 2010):

Columns and labels:
MCP-1 = test: IFN-α induced MCP-1 secretion from human monocytes; type: cell-based; settings: 500 IU/ml IFN-α, 48 h (FIG. 6B)
Protocol: (§1) Freshly isolated monocytes were treated with 500 IU/ml IFN-α with or without indicated compounds for 48 h. Supernatants were collected and MCP-1 and IP-10 levels were analyzed by Searchlight Inc. Percentage inhibition represents inhibition of the upregulation of chemokine induced by IFN-α compared to the vehicle control. Panel A: Effect of compounds on IP-10 secretion. Panel B: Effect of compounds on MCP-1 secretion. Each bar represents the average+/−SEM of three independent experiments. Panel C: IKK2 inhibitor IV blocked IFN-α induced IP-10 protein level in vivo. Female NZBW/F1 mice were treated with either antibody (i.p. injection 30 mg/kg) or IKK2 inhibitor (45 mg/kg BID) as described in materials and methods. Adenovirus-IFN-a (1×10^10 viral particles) was administrated i.v. at time 0. Samples were collected 6 h post-stimulation, IP-10 protein level was measured by ELISA. Data representative of two experiments.
(§2) Multiple chemokines, including monocyte chemo-attractant protein-1 (MCP-1) and activated T cell chemokine interferon inducible protein 10 (IP-10) regulate leukocytes migration and infiltration into inflammated organs^34. Expression of MCP-1 and IP-10 are elevated in serum of SLE patients^34, 35 and in monocytes of healthy donors stimulated in vitro by IFN-α^36. Consequently, the effect of Apicidin 1a, IKK2 inhibitor IV, and JAK inhibitors in IP-10 and MCP-1 expression induced by IFN-α from human monocytes was examined.
(§3) For monocyte differentiation assays, human monocytes were isolated from the blood of healthy donors according to manufactory's instructions (Miltenyi Biotec Inc; Auburn Calif.). 5×10^5 freshly prepared monocytes were pre-incubated with compounds or vehicle control for 30 min. […] Cell surface protein were stained with FITC-labeled anti-CD80, PE-labeled anti-CD123, PEcy7 labeled anti-CD38, APC cy7 labeled MHC class II (all BD, San Jose, Calif.) and analyzed on a FACS Calibur flow cytometer (BD). Cytokine and chemokine levels in supernatants from monocyte differentiation assays were measured using searchlight human cytokine array (Pierce Inc, Woburn, Mass.). […]

[1] = test system: freshly isolated monocytes; test: Cytotoxicity at the concentration used in the SLE serum monocyte assay; type: cell-based, human; settings: 1 μm
HSV-1 = test: In vitro anti-viral assay, HSV-1/luciferase replication in Hep-2 cells with IFN-α; type: cell-based, Herpes Simplex Virus-1
Protocol: Hep-2 cells were seeded at 2×10^4 cells/well in 96 well plates. Cells were infected with HVS1 at an Multiplicity Of Infection (MOI) of 5 for 1 h at 37° C. 24 hours post-seeding. Virus was aspirated, cells were washed, and 200 μl of medium with or without IFN-α or compound were added as indicated. After 48 h, cells were washed, lysed and luciferase activity were measured according to the manufacturer's instructions. […] Each bar represents the mean+/−SEM of triplicates from one experiment.
Herpes Simplex Virus-1 (HSV-1) represents one of the major recurrent virus infections observed in SLE patients^37. Type-I and Type-II IFN signals are known to block HSV-1 dissemination in mice^38, and as a consequence, a therapeutic approach that neutralizes their combined activity may constitute an important safety concern. Therefore, the impact of Apicidin 1a, IKK2 inhibitor IV, and JAK inhibitors on HSV-1 replication regulated by IFN-α in Hep-2 cells was examined in vitro. HSV-1/luciferase was used to infect Hep-2 cells, and viral replication was monitored by luciferase expression.
Hep-2 cells were propagated in MEM (Invitrogen) with 10% fetal bovine serum. HSV-1 recombination virus with both firefly and Renilla luciferase genes in a divergent orientation from a single multiple cloning site were a gift from Dr. Leib's lab. Hep-2 cells were seeded at 2×10^4 cells/well in 96 well plate, 24 h post seeding, cells were infected with virus at an MOI of 5, after absorption for 1 h at 37° C., free viral particles were removed by aspiration, cells were washed, and 200 μl medium containing IFN-α with or without test compounds. After 48 h incubation, cells were washed and lysed in 20 μl of Passive Lysis Buffer (Promega Inc; Madison, Wis.) frozen, thawed, and assayed for firefly and Renilla luciferase activity using the Dual Luciferase Assay kit (Promega).

IFN-α signaling pathway = test: High-Throughput Integrated Transcriptional Screening (HITS), qPCR of IFN-α signature gene set in THP-1 cells; type: cell-based, human; settings: compound 10 μM, 100 IU/ml IFN-α 4 h, a gene inhibited by more than 50% gets its maximum score, scores added, hit if greater than 50% of maximum
Protocol: The unique gene expression signature of the IFN-α signaling pathway was established in THP-1 cells by comparing the gene profiles of the fully activated IFNα pathway to the basal gene expression. THP-1 cells were stimulated either with 100 IU/ml IFN-α, 100 IU/ml IFN-γ, or 10 ng/ml TNF-α to generate the activated pathway gene signatures.
In one embodiment, the compounds of Table 1 were used to identify different mechanisms of action as identified from primary screening. If a gene is inhibited by more than 50% then it receives its maximum score (all or none type of scoring).
THP-1 cells seeded at 8×10^5 cells/ml were treated with either compound (10 μM final concentration) or vehicle control (0.1% DMSO) for 30 minutes prior to a four hour stimulation with 100 IU/ml IFN-α or PBS. Plates were incubated at 37° C. in a humidified incubator. Cell lysis and RNA isolation were carried out according to the manufacturer's instructions (TurboCapture mRNA Kit, Qiagen Inc.). PCR primer pairs were designed for each of the genes identified through the global gene expression analysis using Primer 3 based method (see below for primer sequences). Each primer was evaluated for the efficient production of a single band of appropriate size in the presence of template RNA and the lack of distinct amplification products in a non-template control. Real time PCR reactions were carried out in SYBR green master mix (Quanta biosciences) on ABI9700 thermocyclers.
We used the house keeping gene, GAPDH, as the normalization control for the IFN-α gene signature set to correct the overall variability in the qPCR based HITS process. The corrected profiles were then normalized to the basal gene expression levels determined by using the vehicle only treatments. We subtracted the vehicle only control gene value from the test compound gene profiles, gene per gene (see FIG. 1).

[2] = test system: SLE-associated gene signature as induced by SLE serum; test: SLE serum-induced IFN-α gene signature in freshly isolated monocytes (HITS qPCR); type: cell-based, human; settings: for Percentage inhibition of the six most robustly induced IFN-α signature genes induced by SLE serum: 1 μm, monocytes stimulated with 50% SLE patient serum, mean of six genes vs vehicle control; for Upregulation of the six most robustly induced IFN-α signature gene set by 50% lupus serum (in words): freshly isolated monocytes, dose dependent (FIG. 4)
Excerpt: RNA from lysed cells was examined by qPCR analysis in HITS assay. […] Each bar represents the average+/−SEM of three independent experiments using serum from different SLE patients.
Stimulation of healthy donor PBMCs with serum isolated from SLE patients induces the up-regulation of IFN-α pathway-associated genes (Interfon-induced genes, IFIGs), such as MX1^31. Furthermore, expression of IFIG correlates with disease severity and organ involvement^31, 32. To further evaluate the role of small molecular inhibitors on the type I IFN gene signature, freshly isolated monocytes stimulated with 50% lupus serum were used in HITS assays. […] Importantly, these experiments were performed with SLE serum from patients with well characterized biochemical profiles.
SLE patient and control serum were purchased from Bioreclamation (Hicksville, N.Y.). IFN-α 2a was obtained from PBL Biomedical laboratories (Piscataway, N.J.). Fresh PBMCs from healthy donor were prepared by Ficoll-hypaque fraction according to the manufactory's instruction. Cells were cultured at 2×10^5 cells/0.1 ml in 96-well flat-bottomed plates in culture medium.
To determine the effect of compounds on gene expression, compounds and vehicle controls were pre-incubated with cells for 30 min at 37° C. before stimulation with 50% lupus serum or 100 IU/ml IFN-α 2a were incubated with PBMC. After 6 h stimulation, cells were lysed in Qiagen 2XTCL lysis buffer followed by HITS analysis (see FIG. 2).

IP-10 [3] = test: IFN-α induced IP-10 secretion from human monocytes; type: cell-based; settings: 500 IU/ml IFN-α, 48 h (FIG. 6A)
Protocol: as §1, §2, §3

[4] = test system: CD80, CD123 and CD38 cell surface expression on monocytes; test: IFN-α induced primary human monocyte activation/differentiation, cell surface markers by FACS; type: cell-based; settings: 500 IU/ml IFN-α, 48 h, FACS (FIG. 5)
Protocol: Freshly isolated monocytes from healthy donor were pre-incubated with compounds or vehicle control for 0.5 hour before stimulation with 500 IU/ml IFN-α. Cell surface expression of CD80, CD123 and CD38 was evaluated by FACS 48 h post-stimulation. Each bar represents the average+/−SEM of three independent experiments.
Since deregulated differentiation of DCs induced by IFN-α may be a critical contributing factor in SLE^13, the impact of Apicidin 1a, IKK2 inhibitor IV, and JAK inhibitors in DC differentiation was examined. Human monocytes were stimulated with IFN-α and the expression of CD38 CD80 and CD123 differentiation markers was monitored^33.
For monocyte differentiation assays, human monocytes were isolated from the blood of healthy donors according to manufactory's instructions (Miltenyi Biotec Inc; Auburn Calif.). 5×10^5 freshly prepared monocytes were pre-incubated with compounds or vehicle control for 30 min. Cells were then incubated in RPMI 1640 medium (Invitrogen, Carlsbad, Calif.) including 10% fetal calf serum (Invitrogen) supplemented with 500 IU/ml IFN-α 2a for 48 hr. Cell surface protein were stained with FITC-labeled anti-CD80, PE-labeled anti-CD123, PEcy7 labeled anti-CD38, APC cy7 labeled MHC class II (all BD, San Jose, Calif.) and analyzed on a FACS Calibur flow cytometer (BD). Cytokine and chemokine levels in supernatants from monocyte differentiation assays were measured using searchlight human cytokine array (Pierce Inc, Woburn, Mass.). (see FIG. 5)

IP-10 [5] = test: IFN-α induced chemokine release in vivo (adenovirus IFN-α5, serum IP-10 ELISA); parameters: species or system Female NZBW/F1 mice
Protocol: as §1
Next, the effect of IKK-2 inhibitor IV in IP-10 and MCP-1 expression was examined in vivo. To induce IP-10 and MCP-1 expression, mice were infected with adenovirus encoding IFN-α5. As a result, IP-10 but not MCP-1 levels were detected in serum (data not shown). […]
Female NZBW/F1 mice (Jackson Laboratories, Bar Harbor, Me.) were housed in pathogen-free conditions with access to food and water. […] Serum levels of IP10 were assessed by ELISA (R&D Systems, Minneapolis, Minn.). […]

| Molecule | MCP-1 expression induced by IFN-α (MCP-1) | Cytotoxicity [1] | Effect on anti-viral effects of IFN-α at low dose (HSV-1; HSV-1, 0.1 μm (FIG. 7C)) | IFN-α dependent anti-viral activity at higher dose (HSV-1; HSV-1, higher dose where MCP-1 production is inhibited (FIG. 7C)) | HTS Score (IFN-α signaling pathway) | Percentage inhibition of the six most robustly induced IFN-α signature genes induced by SLE serum [2] [%] | Upregulation of the six most robustly induced IFN-α signature gene set by 50% lupus serum (in words) [2] | Expression of IP-10 induced by IFN-α (IP-10 [3]) | CD38 expression [4] | CD80 expression [4] | CD123 expression [4] | Effect on IFN-α dependent anti-viral activity (HSV-1 replication) (HSV-1; MOI 5, 48 h, even at higher doses (FIG. 7A, 7B)) | IFN-α induced IP-10 protein level in vivo (in words) (IP-10 [5]; Female NZBW/F1 mice, 45 mg/kg BID, 6 h post-stimulation, ELISA (FIG. 6C)) | Inhibition of levels of serum IP-10 (IP-10 [5]; mice infected with adenovirus encoding IFN-α5, 6 h post-stimulation, IKK2 inhibitor 45 mg/kg BID, antibody i.p. 30 mg/kg) [%] |
| --- | --- | --- | --- | --- | --- | --- | --- | --- | --- | --- | --- | --- | --- | --- |
| CCC(=O)CCCCC[C@@H]1NC(=O)[C@H]2CCCCN2C(=O)C([C@@H](C)CC)NC(=O)[C@H](Cc2cn(OC)c3ccccc23)NC1=O (stereo partly drawn) [Compound 2, Apicidin] | totally neutralizes MCP-1 expression | did not exhibit cytotoxicity | inhibited anti-viral effects of IFN-α | abolished or viral growth was actually promoted | 0.89 | 80 | blocked the upregulation | no neutralization | limited to the highest dose of 1 μM | blocks CD80 expression | limited to the highest dose of 1 μM |  |  |  |
| O=C(CCCCCN1C(=O)c2cccc3cccc(c23)C1=O)NO [Compound 3, scriptaid] |  |  |  |  | 0.88 |  |  |  |  |  |  |  |  |  |
| CC(/C=C/C(=O)NO)=C\[C@@H](C)C(=O)c1ccc(N(C)C)cc1 [Compound 4, Trichostatin A] |  |  |  |  | 1 |  |  |  |  |  |  |  |  |  |
| NC(=O)Nc1sc(-c2ccc(F)cc2)cc1C(N)=O [Compound 5, IKK-2 Inhibitor IV] | restricted to the highest dose | did not exhibit cytotoxicity |  |  | 0.95 | 77 | blocked the upregulation | block the expression of IP-10 | dose-dependent inhibition | dose-dependent inhibition | dose-dependent inhibition | retained the majority of IFN-α dependent anti-viral activity | blocked | 98 |
| CC(C)(C)c1nc2c3ccc(F)cc3c3c(=O)[nH]ccc3c2[nH]1 [Compound 7, JAK Inhibitor I] | restricted to the highest dose | did not exhibit cytotoxicity |  |  | 0.9 | 60 | blocked the upregulation | block the expression of IP-10 | dose-dependent inhibition | dose-dependent inhibition | dose-dependent inhibition |  |  |  |
| C=CC(=O)C1=CC2C=CC=CC2C=C1 (stereo not drawn) [Compound 8, JAK3 Inhibitor V] |  |  |  |  | 0.79 |  |  |  |  |  |  |  |  |  |
| Oxamflatin [Compound 1] |  |  |  |  | 1 |  |  |  |  |  |  |  |  |  |
